Source: patent publication US5912351A, “Anhydrous 1,4-Dihydropyridines and salts thereof” (Recordati, S.A. Chemical and Pharmaceutical Company, priority 1995, dated 1999)

Columns and labels:
Assay type in all cases: cell-based
[1] = system: mouse monocyte-macrophage cells (ATCC TIB 67 J774A.1); assay: Cell-mediated oxidation of LDL (MDA, thiobarbituric acid assay), J774A.1 cells; conditions: 30 μM, after 10 hours incubation, FIG. 7
Description: The antioxidant capacity of the compounds of the invention, on cell-mediated oxidation, was evaluated by incubating LDL and mouse monocyte-macrophage cells (ATCC TIB 67 J774A.1) with CuSO4 solution in the presence of […], lercanidipine or one of its enantiomers at several concentrations. The inhibition of formation of aldehydic breakdown products, i.e., secondary metabolites of lipid peroxidation, malonic dialdehyde (MDA), was assessed by detection of dialdehyde formation using the thiobarbituric acid assay (A. N. Hanna et al., Biochem. Pharmacol. 45: 753 (1993)).
The antioxidant capacity was evaluated by incubating ethylene-diaminetetraacetic acid free-LDL under sterile conditions with 5 μM Cu++ (100 μg Apo B/ml) in the presence of J774A.1 cells. Oxidation was stopped after 22 hours incubation by addition of butylated hydroxytoluene to the medium (final concentration 40 μM) dissolved in ethanol. […] Malonic dialdehyde equivalents were calculated using 1,1,3,3-tetramethoxypropane as the standard.
In experiments 9A and 9B, the cell-mediated oxidation effects of lercanidipine were investigated after incubation for 22 hours. […] Samples were withdrawn from the incubation medium and the oxidation product, MDA, measured as described above.

enzyme ACAT [2] = biological target: T1, enzyme ACAT (Mus musculus, UniProt Q61263); assay: Cholesterol esterification in cholesterol ester loaded macrophages; conditions: macrophages preloaded with cholesteryl esters
T1 construct: Mouse peritoneal macrophages were obtained by peritoneal lavage from mice; endogenous in cells; host or cells: peritoneal macrophages of Balb/c mice, three days after intraperitoneal thioglycolate
T1 sequence (Q61263 1-540): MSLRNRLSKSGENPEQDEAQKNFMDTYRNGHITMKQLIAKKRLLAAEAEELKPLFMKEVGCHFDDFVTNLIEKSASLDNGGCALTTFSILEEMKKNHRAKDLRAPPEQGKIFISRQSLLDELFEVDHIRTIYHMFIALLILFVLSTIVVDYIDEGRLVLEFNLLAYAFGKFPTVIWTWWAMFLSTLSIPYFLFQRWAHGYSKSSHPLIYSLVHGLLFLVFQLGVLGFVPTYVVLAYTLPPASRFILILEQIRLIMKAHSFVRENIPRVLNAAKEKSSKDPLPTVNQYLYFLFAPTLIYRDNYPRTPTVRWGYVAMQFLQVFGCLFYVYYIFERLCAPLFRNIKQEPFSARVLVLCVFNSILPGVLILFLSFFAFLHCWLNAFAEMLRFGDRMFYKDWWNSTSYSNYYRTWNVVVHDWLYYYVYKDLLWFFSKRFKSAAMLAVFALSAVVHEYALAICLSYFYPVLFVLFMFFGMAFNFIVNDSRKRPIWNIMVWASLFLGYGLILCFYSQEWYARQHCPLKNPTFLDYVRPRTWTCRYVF
Description: Cholesterol esterification induced by AcLDL in mouse peritoneal macrophages was investigated as follows. Mouse peritoneal macrophages were obtained by peritoneal lavage from mice (Balb/c Charles River, Calco, Italy) three days after intraperitoneal injection of thioglycolate. Cells (2×3×10^6) were plated in 35 mm wells with Dulbecco's minimum essential medium containing 10% fetal bovine serum. After 3 hours, the dishes were washed to eliminate unattached cells and maintained in Dulbecco's minimum essential medium plus 10% fetal bovine serum for 24 hours before use. After cell plating, experiments were performed at 37° C. in serum free Dulbecco's minimum essential medium containing 0.2% essentially fatty acid-free bovine serum albumin, AcLDL, a specific ACAT inhibitor, S-58035 (See C. A. Ross et al., J. Biol, Chem. 259: 815-819 (1984)), and lercanidipine, or the lercanidipine enantiomers indicated. Human LDL (d=1.019-1.063 g/ml) were isolated from plasma of healthy volunteers by sequential ultracentrifugation (Beckman L5-50, Palo Alto, Calif.). For acetylation, LDL were dialyzed against 0. 15 M NaCl , pH 7.4, diluted with an equal volume of saturated sodium acetate and treated with acetic anhydride. For [^125 1]AcLDL, lipoproteins were labelled with sodium [^125 I]iodide desalted by gel filtration on Sephadex G-25 eluted with phosphate buffered saline. Specific activity was 100-200 cpm/ng of protein. Trichloroacetic acid non-precipitable radioactivity was below 2% of total. All lipoproteins were sterile filtered. The cells were incubated for 24 hours with the tested compounds. […] Cholesterol esterification was measured after addition of [1-^14 C] oleic acid (0.68 mCi sample) complexed with bovine serum albumin during the last 1 or 2 hours of incubation by subsequent determination of radioactivity associated with cellular cholesteryl esters. […]
Cells, prepared according to the procedure in Example 6A, are loaded with cholesteryl esters by exposure for 24 hours to a medium containing 50 μg/ml acetyl LDL. ACAT inhibition was then determined as in Example 6A.

enzyme ACAT [3] = biological target: T1, enzyme ACAT; assay: Cholesterol esterification induced by AcLDL in mouse peritoneal macrophages; conditions: FIG. 3
Description: Cholesterol esterification induced by AcLDL in mouse peritoneal macrophages was investigated as follows. Mouse peritoneal macrophages were obtained by peritoneal lavage from mice (Balb/c Charles River, Calco, Italy) three days after intraperitoneal injection of thioglycolate. Cells (2×3×10^6) were plated in 35 mm wells with Dulbecco's minimum essential medium containing 10% fetal bovine serum. After 3 hours, the dishes were washed to eliminate unattached cells and maintained in Dulbecco's minimum essential medium plus 10% fetal bovine serum for 24 hours before use. After cell plating, experiments were performed at 37° C. in serum free Dulbecco's minimum essential medium containing 0.2% essentially fatty acid-free bovine serum albumin, AcLDL, a specific ACAT inhibitor, S-58035 (See C. A. Ross et al., J. Biol, Chem. 259: 815-819 (1984)), and lercanidipine, or the lercanidipine enantiomers indicated. Human LDL (d=1.019-1.063 g/ml) were isolated from plasma of healthy volunteers by sequential ultracentrifugation (Beckman L5-50, Palo Alto, Calif.). […] Trichloroacetic acid non-precipitable radioactivity was below 2% of total. […] Cholesterol esterification was measured after addition of [1-^14 C] oleic acid (0.68 mCi sample) complexed with bovine serum albumin during the last 1 or 2 hours of incubation by subsequent determination of radioactivity associated with cellular cholesteryl esters.

| Compound | inhibition of lipid oxidation (MDA) over time [1] | relative potency, cholesterol esterification (enzyme ACAT [2]) | IC50 (enzyme ACAT [2]; FIG. 4) [µM] | relative potency, cholesterol esterification (enzyme ACAT [3]) |
| --- | --- | --- | --- | --- |
| COC(=O)C1=C(C)NC(C)=C(C(=O)OC(C)(C)CN(C)CCC(c2ccccc2)c2ccccc2)C1c1cccc([N+](=O)[O-])c1 (racemic) [LE, methyl 1,1,N-trimethyl-N-(3,3-diphenylpropyl)-2-aminoethyl 1,4-dihydro-2,6-dimethyl-4-(3-nitrophenyl)-pyridine-3,5-dicarboxylate] | very high inhibition of lipid oxidation | – | – | – |
| COC(=O)C1=C(C)NC(C)=C(C(=O)OC(C)(C)CN(C)CCC(c2ccccc2)c2ccccc2)[C@@H]1c1cccc([N+](=O)[O-])c1 [(R)-LE, (R)-(-)METHYL 1,1-N-TRIMETHYL-N-(3,3-DIPHENYLPROPYL)-2-AMINOETHYL 1,4-DIHYDRO-2,6-DIMETHYL-4-(3-NITROPHENYL)PYRIDINE-3,5-DICARBOXYLATE] | – | slightly more potent than the racemate | ~7 | most potent compound |
| COC(=O)C1=C(C)NC(C)=C(C(=O)OC(C)(C)CN(C)CCC(c2ccccc2)c2ccccc2)[C@H]1c1cccc([N+](=O)[O-])c1 [(S)-LE, (S)-(+)-METHYL 1,1-N-TRIMETHYL-N-(3,3-DIPHENYLPROPYL)-2-AMINOETHYL 1,4-DIHYDRO-2,6-DIMETHYL-4-(3-NITROPHENYL)PYRIDINE-3,5-DICARBOXYLATE] | – | least potent | – | – |
